According to ChEMBL document CHEMBL1201862, “PubChem BioAssay data set” (2004):
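Growth conditions: 96-well plates. Treatment: test compound, 48 hours, 5 concentrations. Analysis: linear interpolation between bracketing concentrations; unreached endpoints set to highest concentration. At the GI50, growth is halved.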 Active and inactive are the calls of the source. No stated cut-off is given here; in the data, active = GI50 up to about 1.1 µM and inactive = higher.

Columns and labels:
Test in all cases: inhibition of tumour cell growth, NCI panel, 48 h
CCRF-CEM = test system: CCRF-CEM
UACC-62 = test system: UACC-62
PC-3 = test system: PC-3
NCI-H23 = test system: NCI-H23
SF-539 = test system: SF-539
Hs-578T = test system: Hs-578T
CAKI-1 = test system: CAKI-1
NCI-H460 = test system: NCI-H460
EKVX = test system: EKVX
RXF 393 = test system: RXF 393
RPMI-8226 = test system: RPMI-8226
MOLT-4 = test system: MOLT-4
MDA-N = test system: MDA-N
K562 = test system: K562
SK-OV-3 = test system: SK-OV-3
NCI-H522 = test system: NCI-H522
ACHN = test system: ACHN
LOX IMVI = test system: LOX IMVI
A498 = test system: A498
HOP-92 = test system: HOP-92

Row | SMILES | GI50 (CCRF-CEM) | GI50 (UACC-62) | GI50 (PC-3) | GI50 (NCI-H23) | GI50 (SF-539) | GI50 (Hs-578T) | GI50 (CAKI-1) | GI50 (NCI-H460) | GI50 (EKVX) | GI50 (RXF 393) | GI50 (RPMI-8226) | GI50 (MOLT-4) | GI50 (MDA-N) | GI50 (K562) | GI50 (SK-OV-3) | GI50 (NCI-H522) | GI50 (ACHN) | GI50 (LOX IMVI) | GI50 (A498) | GI50 (HOP-92)
1 | COc1ccc2c(c1)c1nn(CCN(C)C)c3ccc4c(=O)n(CCN(C)C)c(=O)n2c4c13 | < 0.01 µM (active) | 0.116 µM (active) | 0.0103 µM (active) | < 0.0241 µM (active) | 0.169 µM (active) | 0.0463 µM (active) | 0.0682 µM (active) | < 0.01 µM (active) | 0.0746 µM (active) | 0.133 µM (active) | < 0.01 µM (active) | < 0.01 µM (active) | < 0.0325 µM (active) | < 0.019 µM (active) | < 0.0157 µM (active) | < 0.01 µM (active) | < 0.01 µM (active) | 0.0171 µM (active) | 0.114 µM (active) | 
2 | COC(=O)c1c(C)[n+]([O-])c2cc(Cl)c(Cl)cc2[n+]1[O-] | 10.4 µM (inactive) | 15 µM (inactive) | 22.4 µM (inactive) | 30.1 µM (inactive) | 18.9 µM (inactive) | 21.9 µM (inactive) | 20.7 µM (inactive) | 5.38 µM (inactive) | 19.5 µM (inactive) | 32.9 µM (inactive) | 4.17 µM (inactive) | 12.6 µM (inactive) | 19.5 µM (inactive) | 32.2 µM (inactive) | 12.9 µM (inactive) | 10.1 µM (inactive) | 15.8 µM (inactive) | 8.65 µM (inactive) | 10.2 µM (inactive) | 
3 | NC(=O)c1nnsc1N/N=C/c1ccc([N+](=O)[O-])cc1 | > 100 µM (inactive) | > 100 µM (inactive) | > 100 µM (inactive) | > 100 µM (inactive) | > 100 µM (inactive) | > 100 µM (inactive) | > 100 µM (inactive) | > 100 µM (inactive) | > 100 µM (inactive) | > 100 µM (inactive) | > 100 µM (inactive) | > 100 µM (inactive) | > 100 µM (inactive) | > 100 µM (inactive) | > 100 µM (inactive) | > 100 µM (inactive) | > 100 µM (inactive) | > 100 µM (inactive) | > 100 µM (inactive) | 
4 | CCOP(=O)(OCC)C(NC(=O)C(C(F)(F)F)C(F)(F)F)c1ccccc1 (stereo not drawn) | 36.6 µM (inactive) | > 100 µM (inactive) | > 100 µM (inactive) | > 100 µM (inactive) | > 100 µM (inactive) | > 100 µM (inactive) | > 100 µM (inactive) | > 100 µM (inactive) | > 100 µM (inactive) | > 100 µM (inactive) | 21.7 µM (inactive) | 67.3 µM (inactive) | > 100 µM (inactive) | 61.2 µM (inactive) | > 100 µM (inactive) |  | > 100 µM (inactive) | > 100 µM (inactive) |  | > 100 µM (inactive)
5 | COC(=O)CSC(=S)Nc1nnc(NC(=S)SCOC(C)=O)n1C(=S)SCC(=O)OC | > 100 µM (inactive) | > 100 µM (inactive) | > 100 µM (inactive) | > 100 µM (inactive) |  | > 100 µM (inactive) | > 100 µM (inactive) | > 100 µM (inactive) | > 100 µM (inactive) | > 100 µM (inactive) | > 100 µM (inactive) | > 100 µM (inactive) | > 100 µM (inactive) | > 100 µM (inactive) |  |  | > 100 µM (inactive) | > 100 µM (inactive) | > 100 µM (inactive) | 
6 | O=C(Nc1ccccc1)Oc1ccc(C(=S)Nc2ccc(Br)cc2)cc1 | 8.57 µM (inactive) | 11 µM (inactive) | 22.6 µM (inactive) | 17.5 µM (inactive) | 18.6 µM (inactive) | 22.9 µM (inactive) | 15.3 µM (inactive) | 16.9 µM (inactive) | 5.13 µM (inactive) |  | 36.6 µM (inactive) | 13.4 µM (inactive) | 18.9 µM (inactive) | 21.5 µM (inactive) | 34.5 µM (inactive) | 11 µM (inactive) | 23.3 µM (inactive) | 11.9 µM (inactive) | 19.1 µM (inactive) | 
7 | CN(C)c1ccc(/C=N\NC(=O)c2ccccc2Nc2ccccc2C(=O)N/N=C/c2ccc(N(C)C)cc2)cc1 | > 100 µM (inactive) | > 100 µM (inactive) | > 100 µM (inactive) | > 100 µM (inactive) | 20 µM (inactive) | > 100 µM (inactive) | > 100 µM (inactive) | > 100 µM (inactive) | > 100 µM (inactive) | > 100 µM (inactive) | > 100 µM (inactive) | > 100 µM (inactive) | > 100 µM (inactive) | > 100 µM (inactive) | > 100 µM (inactive) |  | > 100 µM (inactive) | 92.9 µM (inactive) | > 100 µM (inactive) | > 100 µM (inactive)
